Experimental data reported in patent publication US10829490B2, “Substituted dihydropyrazino[1 ′,2′:1,5]pyrrolo[2,3-d]pyrimidine-based antiproliferative agents” (G1 Therapeutics, Inc., priority 2016, dated 2020).
pIC50: −log10 of the molar value.

Tests used:
Format in all cases: biochemical
CDK4/CyclinD1 = CDK4/CyclinD1 (Homo sapiens (Human), UniProt P11802); assay: CDK4/cyclinD1 kinase assay, microfluidic kinase detection (Caliper, Nanosyn); settings: 12-point dose-response, ATP at Km (200 μM), enzyme 1 nM, incubation 10 hr; read-out: CDK4/Cyclin D1
Experimental: (§1) Selected compounds disclosed herein were tested in CDK4/cyclinD1, CDK2/CycA and CDK2/cyclinE kinase assays by Nanosyn (Santa Clara, Calif.) to determine their inhibitory effect on these CDKs. The assays were performed using microfluidic kinase detection technology (Caliper Assay Platform). The compounds were tested in 12-point dose-response format in singlicate at Km for ATP. Phosphoacceptor substrate peptide concentration used was 1 μM for all assays and Staurosporine was used as the reference compound for all assays. Specifics of each assay are as described below:
CDK4/CyclinD1: Enzyme concentration: 1 nM; ATP concentration: 200 μM; Incubation time: 10 hr.

CDK6/Cyclin D3 = CDK6/Cyclin D3 (Homo sapiens (Human), UniProt Q00534); assay: CDK6/Cyclin D3 kinase assay (Biological Table 3)
Experimental: [Worded in the source for another target; this target is reported under the same test.] as §1, with “assays.” for “assays. Specifics of each assay are as described below:”

CDK2/CyclinE = CDK2/CyclinE (Homo sapiens (Human), UniProt P24941); assay: CDK2/cyclinE kinase assay, microfluidic kinase detection (Caliper, Nanosyn); settings: 12-point dose-response, ATP at Km (100 μM), enzyme 0.28 nM, incubation 1 hr; read-out: CDK2/Cyclin E
Experimental: as §1
CDK2/CyclinE: Enzyme concentration: 0.28 nM; ATP concentration: 100 μM; Incubation time: 1 hr.

CDK2/CyclinA = CDK2/CyclinA (Homo sapiens (Human), UniProt P24941); assay: CDK2/CycA kinase assay, microfluidic kinase detection (Caliper, Nanosyn); settings: 12-point dose-response, ATP at Km (50 μM), enzyme 0.2 nM, incubation 3 hr; read-out: CDK2/Cyclin A
Experimental: as §1
CDK2/CyclinA: Enzyme concentration: 0.2 nM; ATP concentration: 50 μM; Incubation time: 3 hr.

CDK9/Cyclin T = CDK9/Cyclin T (Homo sapiens (Human), UniProt P50750); assay: CDK9/Cyclin T kinase assay (Biological Table 3)
CDK4/CycD = CDK4/CycD (Homo sapiens (Human), UniProt P11802); assay: CDK4/CycD kinase inhibition (Biological Table 1)
CDK6/CycD3 = CDK6/CycD3 (Homo sapiens (Human), UniProt Q00534); assay: CDK6/CycD3 kinase inhibition (Biological Table 1)
CDK2/CycE = CDK2/CycE (Homo sapiens (Human), UniProt P24941); assay: CDK2/CycE kinase inhibition (Biological Table 1)
CDK2/CycA = CDK2/CycA (Homo sapiens (Human), UniProt P24941); assay: CDK2/CycA kinase inhibition (Biological Table 1)
CDK5/p35 = CDK5/p35 (Homo sapiens (Human), UniProt Q00535); assay: CDK5/p35 kinase inhibition (Biological Table 1)
CDK5/p25 = CDK5/p25 (Homo sapiens (Human), UniProt Q00535); assay: CDK5/p25 kinase inhibition (Biological Table 2)
CDK7/CycH/MAT1 = CDK7/CycH/MAT1 (Homo sapiens (Human), UniProt P50613); assay: CDK7/CycH/MAT1 kinase inhibition (Biological Table 2)
CDK9/CycT = CDK9/CycT (Homo sapiens (Human), UniProt P50750); assay: CDK9/CycT kinase inhibition (Biological Table 2)
Chain of CDK9/CycT (P50750 whole entry): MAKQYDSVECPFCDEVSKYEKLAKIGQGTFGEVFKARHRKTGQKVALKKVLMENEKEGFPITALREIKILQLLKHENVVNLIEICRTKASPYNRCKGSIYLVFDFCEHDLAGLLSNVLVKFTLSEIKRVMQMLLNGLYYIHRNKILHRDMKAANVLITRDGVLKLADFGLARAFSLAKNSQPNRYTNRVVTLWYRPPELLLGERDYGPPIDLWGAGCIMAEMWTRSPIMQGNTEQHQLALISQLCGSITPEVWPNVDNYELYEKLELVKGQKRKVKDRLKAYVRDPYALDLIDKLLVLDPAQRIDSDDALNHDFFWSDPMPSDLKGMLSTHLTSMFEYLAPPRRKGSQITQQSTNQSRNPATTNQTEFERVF
Chain of CDK9/CycT (O60563 whole entry partner): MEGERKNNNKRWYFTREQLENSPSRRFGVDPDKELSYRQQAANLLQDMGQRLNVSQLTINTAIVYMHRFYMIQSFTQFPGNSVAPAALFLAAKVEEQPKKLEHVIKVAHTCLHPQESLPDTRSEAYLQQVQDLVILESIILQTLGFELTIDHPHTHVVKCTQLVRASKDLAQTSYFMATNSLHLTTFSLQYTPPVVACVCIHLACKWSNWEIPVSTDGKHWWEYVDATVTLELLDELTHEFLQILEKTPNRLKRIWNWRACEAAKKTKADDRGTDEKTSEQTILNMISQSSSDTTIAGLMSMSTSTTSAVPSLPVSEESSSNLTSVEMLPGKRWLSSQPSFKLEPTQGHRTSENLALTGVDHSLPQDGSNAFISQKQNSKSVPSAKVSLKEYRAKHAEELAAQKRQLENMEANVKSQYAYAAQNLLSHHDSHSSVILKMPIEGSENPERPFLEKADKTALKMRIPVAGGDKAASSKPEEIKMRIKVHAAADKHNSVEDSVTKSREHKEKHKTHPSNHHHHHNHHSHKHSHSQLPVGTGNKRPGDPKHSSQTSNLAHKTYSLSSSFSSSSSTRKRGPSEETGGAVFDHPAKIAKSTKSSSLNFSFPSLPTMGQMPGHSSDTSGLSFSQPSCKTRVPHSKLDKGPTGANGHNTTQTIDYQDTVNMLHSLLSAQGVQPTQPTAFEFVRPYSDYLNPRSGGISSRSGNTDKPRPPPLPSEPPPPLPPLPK

Chain of CDK4/CycD (P11802 whole entry): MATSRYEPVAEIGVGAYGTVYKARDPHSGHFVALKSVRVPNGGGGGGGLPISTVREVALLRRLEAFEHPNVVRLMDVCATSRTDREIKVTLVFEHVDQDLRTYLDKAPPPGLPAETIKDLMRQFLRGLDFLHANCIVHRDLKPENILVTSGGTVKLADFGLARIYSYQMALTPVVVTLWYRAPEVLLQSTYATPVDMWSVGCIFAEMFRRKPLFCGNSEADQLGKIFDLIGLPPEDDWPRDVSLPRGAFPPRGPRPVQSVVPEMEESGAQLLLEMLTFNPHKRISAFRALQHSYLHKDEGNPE
Chain of CDK4/CycD (P24385 whole entry partner): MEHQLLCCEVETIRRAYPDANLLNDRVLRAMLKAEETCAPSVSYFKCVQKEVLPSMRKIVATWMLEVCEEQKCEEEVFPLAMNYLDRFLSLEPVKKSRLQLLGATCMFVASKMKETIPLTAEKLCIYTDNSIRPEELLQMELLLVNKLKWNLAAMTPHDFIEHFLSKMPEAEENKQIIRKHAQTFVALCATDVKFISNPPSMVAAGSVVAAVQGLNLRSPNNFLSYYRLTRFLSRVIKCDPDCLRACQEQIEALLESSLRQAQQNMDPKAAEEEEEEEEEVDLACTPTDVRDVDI
Chain of CDK4/CyclinD1 (P11802 whole entry): as the sequence (P11802 whole entry) above
Chain of CDK4/CyclinD1 (P24385 whole entry partner): as the sequence (P24385 whole entry partner) above
Chain of CDK5/p35 (Q00535 whole entry): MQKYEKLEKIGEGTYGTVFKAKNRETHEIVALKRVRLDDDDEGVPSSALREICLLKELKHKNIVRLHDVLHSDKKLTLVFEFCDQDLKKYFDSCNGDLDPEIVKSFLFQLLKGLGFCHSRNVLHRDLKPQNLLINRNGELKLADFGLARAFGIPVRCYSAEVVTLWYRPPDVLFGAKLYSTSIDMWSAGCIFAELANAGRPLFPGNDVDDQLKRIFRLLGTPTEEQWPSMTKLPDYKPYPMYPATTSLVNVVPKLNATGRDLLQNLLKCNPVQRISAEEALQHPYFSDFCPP
Chain of CDK5/p35 (Q15078 whole entry partner): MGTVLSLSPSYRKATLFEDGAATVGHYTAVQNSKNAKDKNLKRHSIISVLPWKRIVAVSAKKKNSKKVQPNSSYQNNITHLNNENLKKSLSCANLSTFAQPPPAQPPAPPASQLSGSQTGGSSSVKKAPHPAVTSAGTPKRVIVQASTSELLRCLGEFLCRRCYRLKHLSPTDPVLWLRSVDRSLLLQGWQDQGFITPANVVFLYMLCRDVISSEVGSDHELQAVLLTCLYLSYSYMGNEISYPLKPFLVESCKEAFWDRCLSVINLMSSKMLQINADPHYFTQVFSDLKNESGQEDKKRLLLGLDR
Chain of CDK5/p25 (Q00535 whole entry): as the sequence (Q00535 whole entry) above
Chain of CDK9/Cyclin T (P50750 whole entry): as the sequence (P50750 whole entry) above
Chain of CDK9/Cyclin T (O60563 whole entry partner): as the sequence (O60563 whole entry partner) above
Chain of CDK6/Cyclin D3 (Q00534 whole entry): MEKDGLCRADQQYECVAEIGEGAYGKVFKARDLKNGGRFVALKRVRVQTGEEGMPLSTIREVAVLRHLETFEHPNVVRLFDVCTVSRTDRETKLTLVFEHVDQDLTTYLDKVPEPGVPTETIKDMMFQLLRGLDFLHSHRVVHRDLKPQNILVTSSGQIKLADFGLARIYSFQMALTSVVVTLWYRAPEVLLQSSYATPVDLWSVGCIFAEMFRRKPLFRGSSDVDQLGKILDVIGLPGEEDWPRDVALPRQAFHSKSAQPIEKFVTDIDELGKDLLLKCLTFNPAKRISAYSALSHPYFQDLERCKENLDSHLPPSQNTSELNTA
Chain of CDK6/Cyclin D3 (P30281 whole entry partner): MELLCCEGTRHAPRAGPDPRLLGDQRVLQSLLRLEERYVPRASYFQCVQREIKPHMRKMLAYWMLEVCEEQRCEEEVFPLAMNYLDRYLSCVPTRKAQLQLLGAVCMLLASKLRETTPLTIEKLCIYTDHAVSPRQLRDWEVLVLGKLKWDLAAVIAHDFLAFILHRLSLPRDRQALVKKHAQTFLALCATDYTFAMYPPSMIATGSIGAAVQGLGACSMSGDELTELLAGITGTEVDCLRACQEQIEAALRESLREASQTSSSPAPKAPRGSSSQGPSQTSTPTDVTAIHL
Chain of CDK6/CycD3 (Q00534 whole entry): as the sequence (Q00534 whole entry) above
Chain of CDK6/CycD3 (P30281 whole entry partner): as the sequence (P30281 whole entry partner) above
Chain of CDK7/CycH/MAT1 (P50613 whole entry): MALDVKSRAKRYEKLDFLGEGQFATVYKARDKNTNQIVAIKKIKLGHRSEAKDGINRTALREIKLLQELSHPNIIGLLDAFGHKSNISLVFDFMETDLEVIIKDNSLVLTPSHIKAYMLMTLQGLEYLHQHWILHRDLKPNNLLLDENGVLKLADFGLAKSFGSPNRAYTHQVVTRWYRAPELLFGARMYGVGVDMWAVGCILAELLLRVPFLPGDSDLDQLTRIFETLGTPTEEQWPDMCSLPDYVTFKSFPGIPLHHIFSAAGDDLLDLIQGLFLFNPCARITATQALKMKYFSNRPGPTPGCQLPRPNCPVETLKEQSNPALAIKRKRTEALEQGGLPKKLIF
Chain of CDK7/CycH/MAT1 (P51946 whole entry partner): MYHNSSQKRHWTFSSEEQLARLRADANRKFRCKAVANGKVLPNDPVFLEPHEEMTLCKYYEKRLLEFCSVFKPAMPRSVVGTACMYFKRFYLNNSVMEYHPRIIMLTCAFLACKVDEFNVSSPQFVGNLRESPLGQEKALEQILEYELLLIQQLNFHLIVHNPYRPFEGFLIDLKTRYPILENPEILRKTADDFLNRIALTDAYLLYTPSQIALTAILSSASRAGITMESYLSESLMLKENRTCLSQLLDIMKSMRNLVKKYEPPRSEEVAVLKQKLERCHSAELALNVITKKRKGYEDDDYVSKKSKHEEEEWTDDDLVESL
Chain of CDK7/CycH/MAT1 (P51948 whole entry partner): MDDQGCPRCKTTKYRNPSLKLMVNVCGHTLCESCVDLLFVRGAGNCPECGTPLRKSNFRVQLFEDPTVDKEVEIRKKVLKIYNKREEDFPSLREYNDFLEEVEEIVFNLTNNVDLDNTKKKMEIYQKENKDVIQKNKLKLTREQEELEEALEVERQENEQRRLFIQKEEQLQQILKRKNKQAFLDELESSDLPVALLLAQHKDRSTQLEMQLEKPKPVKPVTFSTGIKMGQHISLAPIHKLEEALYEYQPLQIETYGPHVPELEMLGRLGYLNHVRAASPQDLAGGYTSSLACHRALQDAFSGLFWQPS

Work on `CN1CCN(c2ccc(Nc3ncc4cc5n(c4n3)C3(CCCCC3)Cn3ccnc3-5)nc2)CC1` [Compound 25, N-(5-(4-Methylpiperazin-1-yl)pyridin-2-yl)-5′H -spiro[cyclohexane-1,6′-imidazo[2″,1″:3′,4′]pyrazino[1′,2′:1,5]pyrrolo[2,3-d]pyrimidin]-9′-amine] yielded a pIC50 (CDK4/CyclinD1) of 7.52, a pIC50 (CDK6/Cyclin D3) of 7.00 and a pIC50 (CDK2/CyclinE) of 4.00. For the same compound, the pIC50 (CDK2/CyclinA) was 4.23 and the pIC50 (CDK9/Cyclin T) was 5.20.
For `CN1CCN(c2ccc(Nc3ncc4c(n3)N3CCNC(=O)C3CC4=O)nc2)CC1` (stereo not shown) [Compound 6, 2-((5-(4-methylpiperazin-1-yl)pyridin-2-yl)amino)-6,6a,9,10-tetrahydro-5H-pyrazino[1′,2′:1,6]pyrido[2,3-d]pyrimidine-5,7(8H)-dione], the pIC50 (CDK4/CycD) was 4.84, the pIC50 (CDK6/CycD3) was 4.30 and the pIC50 (CDK2/CycE) was less than 4.00. It also gave a pIC50 (CDK2/CycA) of less than 4.00, a pIC50 (CDK5/p35) of less than 4.00 and a pIC50 (CDK5/p25) of less than 4.00. It also gave a pIC50 (CDK7/CycH/MAT1) of less than 4.00 and a pIC50 (CDK9/CycT) of less than 4.00.
With `CO[C@H]1CC[C@@]2(CC1)CNC(=O)c1cc3cnc(Nc4ccc(N5CCN(C)CC5)cn4)nc3n12` [Compound 38, (1S,4S)-4-Methoxy-2′-((5-(4-methylpiperazin-1-yl)pyridin-2-yl)amino)-7′,8′-dihydro-6′H-spiro[cyclohexane-1,9′-pyrazino[1′,2′:1,5]pyrrolo [2,3-d]pyrimidin]-6′-one] the pIC50 (CDK4/CyclinD1) was 8.15, the pIC50 (CDK6/Cyclin D3) was 8.00 and the pIC50 (CDK2/CyclinE) was 4.85. For the same compound, the pIC50 (CDK2/CyclinA) was 5.30 and the pIC50 (CDK9/Cyclin T) was 6.70.
With `CN1CCN(c2ccc(Nc3ncc4c(n3)N3C(CC4)C(=O)NCC3(C)C)nc2)CC1` (stereo not shown) [Compound 2, 10,10-dimethyl-2-((5-(4-methylpiperazin-1-yl)pyridin-2-yl)amino)-6,6a,9,10-tetrahydro-5H-pyrazino[1′,2′:1,6]pyrido[2,3-d]pyrimidin-7(8H)-one] the pIC50 (CDK4/CycD) was less than 4.00, the pIC50 (CDK6/CycD3) was less than 4.00 and the pIC50 (CDK2/CycE) was less than 4.00. It also gave a pIC50 (CDK2/CycA) of less than 4.00, a pIC50 (CDK5/p35) of less than 4.00 and a pIC50 (CDK5/p25) of less than 4.00. For the same compound, the pIC50 (CDK9/CycT) was less than 4.00.
`CN1CCN(c2ccc(Nc3ncc4cc5n(c4n3)C3(CCOCC3)CNC5=O)nc2)CC1` [Compound 34, 2′-((5-(4-Methylpiperazin-1-yl)pyridin-2-yl)amino)-2,3,5,6,7′,8′-hexahydro-6′H-spiro [pyran-4,9′-pyrazino [1′,2′:1,5]pyrrolo [2,3-d]pyrimidin]-6′-one] showed a pIC50 (CDK4/CyclinD1) of 7.70, a pIC50 (CDK6/Cyclin D3) of 7.70 and a pIC50 (CDK2/CyclinE) of 4.64. For the same compound, the pIC50 (CDK2/CyclinA) was 4.85 and the pIC50 (CDK9/Cyclin T) was 6.40.
`CN1CCN(c2ccc(Nc3ncc4c(n3)N3CCCCC3CC4=O)nc2)CC1` (stereo not shown) [Compound 7, 2-((5-(4-methylpiperazin-1-yl)pyridin-2-yl)amino)-6,6a,7,8,9,10-hexahydro-5H-pyrimido[5,4-c]quinolizin-5-one] gave a pIC50 (CDK4/CycD) of 5.33, a pIC50 (CDK6/CycD3) of 5.74 and a pIC50 (CDK2/CycE) of less than 4.00. The pIC50 (CDK2/CycA) was less than 4.00, the pIC50 (CDK5/p35) was less than 4.00 and the pIC50 (CDK5/p25) was less than 4.00. It also gave a pIC50 (CDK7/CycH/MAT1) of less than 4.00 and a pIC50 (CDK9/CycT) of less than 4.00.
`O=C1NCC2(CCCCC2)n2c1cc1cnc(N[C@H]3CC[C@H](N4CCN(CC5CC5)CC4)CC3)nc12` [Compound 36, 2′-(((1R,4R)-4-(4-(Cyclopropylmethyl)piperazin-1-yl)cyclohexyl)amino)-7′,8′-dihydro-6′H-spiro [cyclohexane-1,9′-pyrazino[1′,2′:1,5]pyrrolo[2,3-d]pyrimidin]-6′-one] gave a pIC50 (CDK4/CyclinD1) of 8.40, a pIC50 (CDK6/Cyclin D3) of 7.52 and a pIC50 (CDK2/CyclinE) of 6.52. The pIC50 (CDK2/CyclinA) was 7.00 and the pIC50 (CDK9/Cyclin T) was 8.70.
`CN1CCN(c2ccc(Nc3ncc4cc5n(c4n3)C3(CCCCC3)C(=O)NC5)nc2)CC1` [Compound 33, 2′-((5-(4-Methylpiperazin-1-yl)pyridin-2-yl)amino)-6′,7′-dihydro-8′H-spiro[cyclohexane-1,9′-pyrazino [1′,2′:1,5]pyrrolo[2,3-d]pyrimidin]-8′-one] was tested, and the pIC50 (CDK4/CyclinD1) was 8.22, the pIC50 (CDK6/Cyclin D3) was 7.70 and the pIC50 (CDK2/CyclinE) was 5.40. For the same compound, the pIC50 (CDK2/CyclinA) was 5.70 and the pIC50 (CDK9/Cyclin T) was 5.52.
In the case of `CN1CCN(c2ccc(Nc3ncc4c(n3)N3C(CC4=O)C(=O)NCC34CCCC4)nc2)CC1` (stereo not shown) [Compound 5, 2′-((5-(4-methylpiperazin-1-yl)pyridin-2-yl)amino)-6′,6a′,8′,9′-tetrahydrospiro[cyclopentane-1,10′-pyrazino[1′,2′:1,6]pyrido[2,3-d]pyrimidine]-5′,7′-dione], the pIC50 (CDK4/CycD) was less than 4.00, the pIC50 (CDK6/CycD3) was less than 4.00 and the pIC50 (CDK2/CycE) was less than 4.00. It also gave a pIC50 (CDK2/CycA) of less than 4.00, a pIC50 (CDK5/p35) of less than 4.00 and a pIC50 (CDK5/p25) of less than 4.00. For the same compound, the pIC50 (CDK7/CycH/MAT1) was less than 4.00 and the pIC50 (CDK9/CycT) was less than 4.00.
In the case of `CN1CCN([C@H]2CC[C@H](Nc3ncc4cc5n(c4n3)C3(CCCCC3)CNC5=O)CC2)CC1` [Compound 37, 2′-(((1R,4R)-4-(4-Methylpiperazin-1-yl)cyclohexyl)amino)-7′,8′-dihydro-6′H-spiro[cyclohexane-1,9′-pyrazino[1′,2′:1,5]pyrrolo[2,3-d]pyrimidin]-6′-one], the pIC50 (CDK4/CyclinD1) was 8.22, the pIC50 (CDK6/Cyclin D3) was 7.40 and the pIC50 (CDK2/CyclinE) was 6.40. It also gave a pIC50 (CDK2/CyclinA) of 7.70 and a pIC50 (CDK9/Cyclin T) of 8.52.
With `CO[C@H]1CC[C@]2(CC1)CNC(=O)c1cc3cnc(Nc4ccc(N5CCN(C)CC5)cn4)nc3n12` [Compound 39, (1R,4R)-4-Methoxy-2′-((5-(4-methylpiperazin-1-yl)pyridin-2-yl)amino)-7′,8′-dihydro-6′H-spiro [cyclohexane-1,9′-pyrazino[1′,2′:1,5]pyrrolo [2,3-d]pyrimidin]-6′-one] the pIC50 (CDK4/CyclinD1) was 7.22, the pIC50 (CDK6/Cyclin D3) was 7.05 and the pIC50 (CDK2/CyclinE) was 4.48. For the same compound, the pIC50 (CDK2/CyclinA) was 4.72 and the pIC50 (CDK9/Cyclin T) was 6.70.
`CN1CCN(c2ccc(Nc3ncc4c(n3)N3C(CC4)C(=O)NCC34CCCCC4)nc2)CC1` (stereo not shown) [Compound 4, 2′-((5-(4-methylpiperazin-1-yl)pyridin-2-yl)amino)-6′,6a′,8′,9′-tetrahydrospiro[cyclohexane-1,10′-pyrazino[1′,2′:1,6]pyrido[2,3-d]pyrimidin]-7′(5′H)-one] was tested, and the pIC50 (CDK4/CycD) was 4.32, the pIC50 (CDK6/CycD3) was 4.12 and the pIC50 (CDK2/CycE) was less than 4.00. It also gave a pIC50 (CDK2/CycA) of 4.06, a pIC50 (CDK5/p35) of less than 4.00 and a pIC50 (CDK5/p25) of less than 4.00. The pIC50 (CDK7/CycH/MAT1) was less than 4.00 and the pIC50 (CDK9/CycT) was less than 4.00.
`CN1CCN([C@H]2CC[C@@H](Nc3ncc4cc5n(c4n3)C3(CCCCC3)CNC5=O)CC2)CC1` [Compound 41, 2′-(((1S,4S)-4-(4-Methylpiperazin-1-yl)cyclohexyl)amino)-7′,8′-dihydro-6′H-spiro[cyclohexane-1,9′-pyrazino[1′,2′:1,5]pyrrolo[2,3-d]pyrimidin]-6′-one] was tested, and the pIC50 (CDK4/CyclinD1) was 6.85, the pIC50 (CDK6/Cyclin D3) was 6.10 and the pIC50 (CDK2/CyclinE) was 5.22. The pIC50 (CDK2/CyclinA) was 5.70 and the pIC50 (CDK9/Cyclin T) was 7.15.
With `CN1CCN(c2ccc(Nc3ncc4cc5n(c4n3)C3(C=NC5)CCCCC3)nc2)CC1` [Compound 31, N-(5-(4-Methylpiperazin-1-yl)pyridin-2-yl)-6′H-spiro[cyclohexane-1,9′-pyrazino[1′,2′:1,5]pyrrolo[2,3-d]pyrimidin]-2′-amine] the pIC50 (CDK4/CyclinD1) was 9.22, the pIC50 (CDK6/Cyclin D3) was 9.00 and the pIC50 (CDK2/CyclinE) was 7.40. For the same compound, the pIC50 (CDK2/CyclinA) was 7.00 and the pIC50 (CDK9/Cyclin T) was 7.40.
With `O=C1NCC2(CCCCC2)n2c1cc1cnc(N[C@H]3CC[C@@H](N4CCN(CC5CC5)CC4)CC3)nc12` [Compound 40, 2′-(((1S,4S)-4-(4-(Cyclopropylmethyl)piperazin-1-yl)cyclohexyl)amino)-7′,8′-dihydro-6′H-spiro [cyclohexane-1,9′-pyrazino[1′,2′:1,5]pyrrolo[2,3-d]pyrimidin]-6′-one] the pIC50 (CDK4/CyclinD1) was 7.05, the pIC50 (CDK6/Cyclin D3) was 6.30 and the pIC50 (CDK2/CyclinE) was 5.30. The pIC50 (CDK2/CyclinA) was 5.70 and the pIC50 (CDK9/Cyclin T) was 7.30.
`CN1CCN(c2ccc(Nc3ncc4c(n3)N3C(=NCC35CCCCC5)C(=O)N4)nc2)CC1` [Compound 27, 2′-((5-(4-Methylpiperazin-1-yl)pyridin-2-yl)amino)-5′H-spiro[cyclohexane-1,9′-imidazo[2,1-h]pteridin]-6′(8′H)-one] was tested, and the pIC50 (CDK4/CyclinD1) was 5.03, the pIC50 (CDK6/Cyclin D3) was 4.68 and the pIC50 (CDK2/CyclinE) was less than 4.00. It also gave a pIC50 (CDK2/CyclinA) of less than 4.00 and a pIC50 (CDK9/Cyclin T) of less than 4.00.
